Counter-ions that a name gives are not always drawn.
Columns and labels:
HIV-1 M:B_Lai = experiment: Antiviral activity against HIV-1 M:B_Lai replication in human C8166 cells assessed as inhibition of p24 antigen expression level after 4 days by ELISA; format: functional, organism-based; settings: Human immunodeficiency virus 1, LAI, C8166, 96 h
[1] = Cytotoxicity against human C8166 cells after 4 days by MTT assay; format: cell-based
HeLa = experiment: Growth inhibition of human HeLa cells at 10 ug/mL after 4 hrs by MTT assay; format: functional; settings: read-out: GI

| EC50 (HIV-1 M:B_Lai) | Compound | CC50 at 96 h [1] | inhibition of growth at 10 µg/mL (HeLa) |
| --- | --- | --- | --- |
| 0.00871 µM | CC(C)(C)NC(=O)[C@@H]1CN(Cc2cccnc2)CCN1C[C@@H](O)C[C@@H](Cc1ccccc1)C(=O)N[C@H]1c2ccccc2C[C@H]1O [INDINAVIR SULFATE] |  |  |
| 14.7 µM | CC1=CC(=O)C=C[C@]2(C)[C@H]3[C@@H](O)C=C(C)[C@@]4(Cc5c(c(C)c(C)oc5=O)O4)[C@]3(C)CC[C@@H]12 [BREVIONE F] | > 100 µM | 25.2% |
| > 50 µM | CC1=CC(=O)C=C[C@]2(C)[C@H]3[C@H](O)C=C(C)[C@@]4(Cc5c(c(C)c(C)oc5=O)O4)[C@]3(C)CC[C@@H]12 [BREVIONE G] |  | 44.9% |
| > 50 µM | CC1=CC(=O)C[C@@H]2O[C@@H]3C=C(C)[C@@]45Oc6c(C)c(C)oc(=O)c6[C@@H]4O[C@H](O)[C@]54CC[C@@H]1[C@@]2(C)[C@@H]34 [BREVIONE H] |  | 25.3% |

Reference: ChEMBL document CHEMBL1151418, “Breviane spiroditerpenoids from an extreme-tolerant Penicillium sp. isolated from a deep sea sediment sample” (J Nat Prod, 2009)
